# Where two headings read alike, the source gives them in different places.
# Columns and labels:
# [1] = molecular target: T1, Kir6.2*-GFP + SUR-K205A (Homo sapiens, UniProt Q14654); assay: Bayesian MWC-type model fits to combined patch-clamp fluorometry data; assay type: biochemical; conditions: for Kd: read-out: KA (intrinsic binding affinity to the closed state) (converted)
# T1 construct: ANAP labelling is specific and only full-length Kir6.2 is expressed at the cell membrane; expressed in transfected cells; host or cells: HEK-293T
# From the text: (§1) Our simultaneous binding and current measurements were well fit with a Monod-Wyman-Changeux (MWC)-type model (Figure 2D,E; [Monod et al., 1965]) which has been previously proposed to explain KATP channel inhibition ([Enkvetchakul and Nichols, 2003]; [Craig et al., 2008]; [Vedovato et al., 2015]). In our MWC-type model, each ligand binding event ( KA ) is independent and each bound ligand favours the closed state by the same factor ( D ). Simultaneous measurement of binding (fluorescence) and gating (current) allowed us to obtain well constrained fits to our model. To obtain free parameter ( L , KA , D ) estimates and verify that each parameter was well and uniquely determined, we employed a Bayesian Markov chain Monte Carlo (MCMC) method previously employed by [Hines et al. (2014)]. Using this approach, we constructed posterior probability distributions for the free parameters of our MWC-type model (Figure 2F, Table 3). […] Our estimate of L was quite low and broadly distributed. We repeated our fits with L fixed to a value consistent with previous single channel measurements (0.8, Popen=0.45; [John et al., 1998]; [Enkvetchakul et al., 2000]; [Ribalet et al., 2006]). This had only a very small effect on our estimates of D and KA (Figure 2—figure supplement 1). The broad distribution of L in our fit may represent current rundown which occurs during our patch-clamp recordings and is expected to affect the open-closed equilibrium.
# (§2) In addition to the full MWC-type model we considered alternate models (Figure 2—figure supplement 2). These included a model in which only the first binding event influences the open-closed equilibrium of the channel (single-binding model; Figure 2—figure supplement 2B, Table 3), and an MWC-style model with an additional parameter C to allow for direct negative cooperativity between binding sites (negative cooperativity model; Figure 2—figure supplement 2C, Table 3). The single-binding model yielded very similar parameter estimates to our full MWC-type model (Figure 2—figure supplement 2D, Table 3). This is a consequence of D being so low that even in the MWC-type model most channels are closed when only a single nucleotide is bound. The cooperative model improved our fits, but not enough to justify the inclusion of an additional free parameter (see Discussion).
# (§3) The MWC-type models considered (Figure 2 and Figure 2—figure supplement 2) were formulated as follows:(3) F/Fmax=KA[TNPATP](1+KA[TNPATP])^3+LDKA[TNPATP](1+DKA[TNPATP])^3/(1+KA[TNPATP])^4+L(1+DKA[TNPATP])^4 (4) open channels/total channels=L(1+DKA[TNPATP])^4/(1+KA[TNPATP])^4+L(1+DKA[TNPATP])^4
# (§4) The first was similar to the MWC-type model, except that the channels close after one molecule of TNP-ATP binding with subsequent binding events having no effect.(7) F/Fmax=LDKA[TNPATP](1+3KA[TNPATP]+3KA2[TNPATP]^2+KA3[TNPATP]^3)+KA[TNPATP](1+KA[TNPATP])^3/L(1+4DKA[TNPATP]+6DKA2[TNPATP]^2+4DKA3[TNPATP]^3+DKA4[TNPATP]^4)+(1+KA[TNPATP])^4 (8) I/Imax=L(1+4DKA[TNPATP]+6DKA2[TNPATP]^2+4DKA3[TNPATP]^3+DKA4[TNPATP]^4)/L(1+4DKA[TNPATP]+6DKA2[TNPATP]^2+4DKA3[TNPATP]^3+DKA4[TNPATP]^4)+(1+KA[TNPATP])^4⋅1+L/L
# (§5) The second alternate model was the same as the full MWC model, but with an additional term C describing binding cooperativity between Kir6.2 subunits.(9) F/Fmax=LDKA[TNPATP](1+3CDKA[TNPATP]+3C^2D^2KA2[TNPATP]^2+C^3D^3KA3[TNPATP]^3)+KA[TNPATP](1+3CKA[TNPATP])+3C^2KA2[TNPATP]^2+C^3KA3[TNPATP]^3)/L(1+4DKA[TNPATP]+6CD^2KA2[TNPATP]^2+4C^2D^3KA3[TNPATP]^3+C^3D^4KA4[TNPATP]^4)+1+4KA[TNPATP]+6CKA2[TNPATP]^2+4C^2KA3[TNPATP]^3+C^3KA4[TNPATP]^4 (10) I/Imax=L(1+4DKA[TNPATP]+6CD^2KA2[TNPATP]^2+4C^2D^3KA3[TNPATP]^3+C^3D^4KA4[TNPATP]^4)/L(1+4DKA[TNPATP]+6CD^2KA2[TNPATP]^2+4C^2D^3KA3[TNPATP]^3+C^3D^4KA4[TNPATP]^4)+1+4KA[TNPATP]+6C^2KA2[TNPATP]^2+4C^2KA3[TNPATP]^3+C^3KA4[TNPATP]^4⋅1+L/L […]
# [2] = molecular target: T2, Kir6.2*-GFP + SUR-K205E (Homo sapiens, UniProt Q14654); assay: as above; assay type: biochemical; conditions: for Kd: read-out: KA (intrinsic binding affinity to the closed state) (converted)
# T2 construct: ANAP labelling is specific and only full-length Kir6.2 is expressed at the cell membrane; expressed in transfected cells; host or cells: HEK-293T
# From the text: as §1, §2, §3, §4, §5
# [3] = Full MWC model, median estimate
# [4] = Single-site (single-binding) model
# T1 sequence (Q14654 whole entry, stated change not applied): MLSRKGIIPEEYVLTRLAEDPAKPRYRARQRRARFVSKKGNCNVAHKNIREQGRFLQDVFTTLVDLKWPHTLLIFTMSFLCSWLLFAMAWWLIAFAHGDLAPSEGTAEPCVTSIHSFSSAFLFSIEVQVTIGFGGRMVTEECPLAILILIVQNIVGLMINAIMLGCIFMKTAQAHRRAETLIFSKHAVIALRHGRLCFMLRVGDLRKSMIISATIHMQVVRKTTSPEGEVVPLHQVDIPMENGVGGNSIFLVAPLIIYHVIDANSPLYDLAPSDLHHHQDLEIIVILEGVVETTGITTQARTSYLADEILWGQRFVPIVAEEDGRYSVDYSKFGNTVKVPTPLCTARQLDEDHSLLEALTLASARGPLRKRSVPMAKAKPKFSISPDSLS
# T1 sequence (Q09428 whole entry K205A partner): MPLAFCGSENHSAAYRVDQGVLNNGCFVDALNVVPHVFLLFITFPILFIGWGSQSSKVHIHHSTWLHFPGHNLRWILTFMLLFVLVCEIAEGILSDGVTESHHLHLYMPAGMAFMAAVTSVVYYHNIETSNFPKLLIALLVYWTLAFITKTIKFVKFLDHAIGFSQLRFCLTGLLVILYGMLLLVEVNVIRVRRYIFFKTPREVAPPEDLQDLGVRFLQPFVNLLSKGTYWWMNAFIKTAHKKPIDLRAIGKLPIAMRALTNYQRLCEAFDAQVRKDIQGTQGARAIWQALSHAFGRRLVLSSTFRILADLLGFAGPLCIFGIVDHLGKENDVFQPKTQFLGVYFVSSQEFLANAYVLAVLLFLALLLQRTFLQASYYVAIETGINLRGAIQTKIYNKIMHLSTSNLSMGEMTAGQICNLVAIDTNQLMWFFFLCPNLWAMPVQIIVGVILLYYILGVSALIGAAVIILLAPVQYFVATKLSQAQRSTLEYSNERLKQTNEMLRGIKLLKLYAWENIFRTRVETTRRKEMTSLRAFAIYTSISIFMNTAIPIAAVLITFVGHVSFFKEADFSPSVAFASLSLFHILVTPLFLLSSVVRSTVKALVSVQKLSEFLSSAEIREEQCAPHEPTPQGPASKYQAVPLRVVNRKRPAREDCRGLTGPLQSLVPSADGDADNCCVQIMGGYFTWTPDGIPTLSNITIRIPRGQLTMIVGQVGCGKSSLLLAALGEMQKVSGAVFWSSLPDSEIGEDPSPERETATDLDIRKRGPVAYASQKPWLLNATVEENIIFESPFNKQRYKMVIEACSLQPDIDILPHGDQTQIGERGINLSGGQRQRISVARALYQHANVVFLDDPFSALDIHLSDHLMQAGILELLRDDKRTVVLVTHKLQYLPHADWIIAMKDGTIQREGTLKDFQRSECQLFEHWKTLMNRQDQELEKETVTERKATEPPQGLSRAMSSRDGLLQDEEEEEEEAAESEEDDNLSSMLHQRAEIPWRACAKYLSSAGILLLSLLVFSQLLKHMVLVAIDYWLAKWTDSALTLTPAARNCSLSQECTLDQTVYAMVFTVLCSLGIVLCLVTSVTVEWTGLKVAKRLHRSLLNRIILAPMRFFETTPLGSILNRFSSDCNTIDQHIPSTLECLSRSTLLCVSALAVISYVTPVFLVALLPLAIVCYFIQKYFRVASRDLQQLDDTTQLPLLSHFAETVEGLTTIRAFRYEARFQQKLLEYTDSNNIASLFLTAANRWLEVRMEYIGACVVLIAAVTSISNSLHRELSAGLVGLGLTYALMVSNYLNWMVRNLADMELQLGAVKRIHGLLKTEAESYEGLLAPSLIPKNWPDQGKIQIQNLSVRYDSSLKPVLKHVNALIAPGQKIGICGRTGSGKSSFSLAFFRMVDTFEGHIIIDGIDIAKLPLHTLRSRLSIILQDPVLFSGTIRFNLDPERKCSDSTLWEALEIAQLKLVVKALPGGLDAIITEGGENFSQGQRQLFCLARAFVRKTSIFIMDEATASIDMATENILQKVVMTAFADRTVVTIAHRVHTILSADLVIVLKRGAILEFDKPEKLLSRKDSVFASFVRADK
# T2 sequence (Q14654 whole entry, stated change not applied): as the sequence (Q14654 whole entry, stated change not applied) above
# T2 sequence (Q09428 whole entry K205E partner): as the sequence (Q09428 whole entry K205A partner) above, with A205E counted along it
structure (smiles),measurement,setting,value
"Nc1ncnc2c1ncn2[C@@H]1O[C@H](COP(=O)(O)OP(=O)(O)OP(=O)(O)O)[C@H]2OC3(O[C@H]21)C([N+](=O)[O-])=CC(=[N+]([O-])[O-])C=C3[N+](=O)[O-] (stereo partly shown) [TNP-ATP, trinitrophenyl-ATP]",D (factor by which nucleotide binding favours channel closure),[1]; [3],0.55
same,L (unliganded open-closed equilibrium constant),[1]; [3],−0.37 log10
same,Kd,[1]; [3],174 µM
same,C (binding cooperativity between Kir6.2 subunits),[1]; Negative cooperativity model,0.35
same,D (factor by which nucleotide binding favours channel closure),[1]; Negative cooperativity model,0.52
same,L (unliganded open-closed equilibrium constant),[1]; Negative cooperativity model,−0.16 log10
same,Kd,[1]; Negative cooperativity model,79.4 µM
same,D (factor by which nucleotide binding favours channel closure),[1]; [4],0.18
same,L (unliganded open-closed equilibrium constant),[1]; [4],−0.25 log10
same,Kd,[1]; [4],240 µM
same,D (factor by which nucleotide binding favours channel closure),[2]; [3],0.62
same,L (unliganded open-closed equilibrium constant),[2]; [3],−0.18 log10
same,Kd,[2]; [3],398 µM
same,C (binding cooperativity between Kir6.2 subunits),[2]; Negative cooperativity model,0.45
same,D (factor by which nucleotide binding favours channel closure),[2]; Negative cooperativity model,0.58
same,Kd,[2]; Negative cooperativity model,195 µM
same,D (factor by which nucleotide binding favours channel closure),[2]; [4],0.30
same,L (unliganded open-closed equilibrium constant),[2]; [4],−0.19 log10
same,Kd,[2]; [4],490 µM
